# *1 amine or outer side, *2 acyl side, *3 side chain or, on linkers, in order; H or OH if unused. Where a SMILES comes first, the peptide text is derived from it. Bridges are numbered along the chain shown (N, C = ends). Roman numbers before positions name the chains, in order. Side-chain parts run from the residue outwards. [ ]: non-standard residue; d: D form. The star is where a group is joined. C20 diacid = O=C(O)CCCCCCCCCCCCCCCCCCC(=O)*; C18 diacid = O=C(O)CCCCCCCCCCCCCCCCC(=O)*; γGlu = O=C(O)[C@H](CCC(=O)[*:2])N[*:1]; εLys = N[C@@H](CCCCN[*:1])C(=O)[*:2]; pGlu = O=C1CC[C@@H](C(=O)O)N1; αMeL = CC(C)C[C@](C)(N)C(=O)O; Dap = NC[C@H](N)C(=O)O; AEEA = NCCOCCOCC(=O)O; Aib = CC(C)(N)C(=O)O; Ahx = NCCCCCC(=O)O; βAla = NCCC(=O)O
# How the values were obtained:
# human CRHR2 = target: T1, human CRHR2 (Homo sapiens, UniProt Q13324); experiment: Human CRHR2 cAMP assay (HTRF) in HEK293 cells stably expressing human CRHR2; format: cell-based; conditions: HEK293 cells overexpressing human CRHR2; relative EC50, maximum 10 nM human UCN2; mean ± SE; read-out: hCRHR2 cAMP EC50 (pM, ± SE)
# T1 construct: expressed in transfected cells
# T1 sequence (Q13324 1-438 isoform Q13324-2): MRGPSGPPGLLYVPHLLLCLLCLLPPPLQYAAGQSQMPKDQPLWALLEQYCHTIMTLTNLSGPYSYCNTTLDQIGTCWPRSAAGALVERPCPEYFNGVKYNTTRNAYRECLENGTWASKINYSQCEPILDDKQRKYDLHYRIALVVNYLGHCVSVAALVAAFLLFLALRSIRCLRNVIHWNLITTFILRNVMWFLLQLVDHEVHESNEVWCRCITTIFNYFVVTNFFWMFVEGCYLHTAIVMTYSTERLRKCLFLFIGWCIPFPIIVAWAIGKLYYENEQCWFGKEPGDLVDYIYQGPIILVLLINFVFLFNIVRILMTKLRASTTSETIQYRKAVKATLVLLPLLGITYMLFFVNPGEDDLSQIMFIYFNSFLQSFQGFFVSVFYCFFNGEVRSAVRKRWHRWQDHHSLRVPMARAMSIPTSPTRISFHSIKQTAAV
# Experimental: (§1) The corticotropin-releasing hormone (CRH) receptor 1 and 2 (CRHR1 and CRHR2) are GPCRs that were functionally coupled to Gs proteins. Stimulation of these receptors results in an increased production of intracellular cAMP, which can be detected using standard in vitro technologies. In vitro activity of peptides was measured by the amount of cAMP formed in human CRHR1 and CRHR2 overexpressed cells.
# (§2) Human CRHR1 and CRHR2 receptors were stably expressed in human embryonic kidney cells (HEK293) under control of a pcDNA expression vector. The HEK293 cell line was cultured in DMEM 1× (Gibco, 93-0152DK) supplemented with 10% FBS, 1 mM sodium pyruvate, 1×MEM NEAA, 1× GlutaMAX and 10 mM HEPES. The plasmids of human CRHR1-pQCXIP (T7364) and human CRHR2b-R2683puro (T16761) DNA were transfected into HEK293 cells using Lipo fectAMINE 3000 Transfection reagent (Invitrogen, L3000001). After 20 days under selection, the mRNA levels from different clones were measured to confirm the expression of human CRHR1 and CRHR2 genes. To determine the function of over-expressed CRHR cells, the intracellular cAMP levels in response to human UCN1 and UCN2 were measured and compared to the expression of CRHR1 and CRHR2 mRNA in each clone.
# (§3) Human CRHR1 cells were cultured in DMEM 1× (Gibco, 93-0152DK) supplemented with 10% FBS, 1 mM sodium pyruvate, 1×MEM NEAA, 1×GlutaMAX, 10 mM HEPES, and 800 μg/ml G418. Human CRHR2 cells were cultured at the same media (DMEM 1×, 10% FBS, 1 mM sodium pyruvate, 1×MEM NEAA, 1×GlutaMAX, 10 mM HEPES) in the presence of 0.5 ug/mL puromycin. Cultured cells were grown to 90% confluency and harvested. The cells were frozen at 10×10e6/ml in a mixture of […] fetal bovine serum plus 7% DMSO and stored in liquid nitrogen until use.
# (§4) On the day of the assay, the frozen cells were thawed and diluted in assay buffer (Phenol Red free MEM (Corning, 17-305-CV, lot #32121010), 0.1% Casein (Sigma C4765, lot #SLCG2120), 5 mM HEPES pH 7.4 containing 0.25 mM IBMX). 10 ul of human CRHR1 cells (25,000 cells) or 10 μL of human CRHR2 cells (5,000 cells) were dispensed into each well of white poly-D-lysine coated 384-well plates (Corning cat #354661). Test compounds diluted in DMSO were added (200 nL/well) in a 1:3 dilution series using ECHO acoustic liquid handler (Beckman). The mixture of cells and test compounds were incubated at 37° C. for 1 hour for the hCRHR1 plate, while the CRHR2 plates were incubated at room temperature for 30 min.
# (§5) The amount of intracellular cAMP was quantitated using HTRF technology (Homogeneous Time Resolved Fluorescence; Cisbio) as per vendor instructions. Briefly, 10 uL CAMP-d2 conjugate and 10 uL anti-CAMP-cryptate conjugate in lysis buffer were incubated with the treated cells at room temperature for 60 min. The HTRF signal was immediately detected using an Envision plate reader (Perkin-Elmer) to calculate the ratio of fluorescence at 665 to 620 nm.
# (§6) Raw fluorescence data for concentration curves of the peptides in Table 2 and Table 3 were converted to cAMP amount (pmol/well) using a cAMP standard curve generated for each experiment.
# human CRHR1 = target: T2, human CRHR1 (Homo sapiens, UniProt P34998); experiment: Human CRHR1 cAMP assay (HTRF) in HEK293 cells stably expressing human CRHR1; format: cell-based; conditions: HEK293 cells overexpressing human CRHR1; relative EC50, maximum 66 nM human UCN1; mean ± SE; read-out: hCRHR1 cAMP EC50 (pM, ± SE)
# T2 construct: expressed in transfected cells
# T2 sequence (P34998 24-415): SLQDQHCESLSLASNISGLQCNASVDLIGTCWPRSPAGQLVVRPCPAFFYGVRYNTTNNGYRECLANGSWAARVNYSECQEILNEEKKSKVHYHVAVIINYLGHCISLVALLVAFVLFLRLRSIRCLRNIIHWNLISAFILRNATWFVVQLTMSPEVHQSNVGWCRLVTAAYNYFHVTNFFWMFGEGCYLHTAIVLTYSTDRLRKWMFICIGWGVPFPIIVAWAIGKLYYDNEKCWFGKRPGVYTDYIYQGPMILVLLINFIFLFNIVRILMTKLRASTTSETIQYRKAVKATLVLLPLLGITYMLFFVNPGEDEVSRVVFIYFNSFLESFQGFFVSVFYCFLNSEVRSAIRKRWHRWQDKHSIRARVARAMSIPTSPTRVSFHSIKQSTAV
# Experimental: as §1, §2, §3, §4, §5, §6
Compound,EC50 (human CRHR2) [pM],EC50 (human CRHR1) [pM]
"Ac-GSPSIVTS[αMeL]DVPT[Aib][αMeL]LQKILEQERAEKARQQAK([Ahx-AEEA-γGlu-C20 diacid])EAAEILAQV-NH2 [SEQ ID NO: 4, Ac-GSPSIVTS αMeL DVPT Aib αMeL LQKILEQERAEKARQQAK(Ahx-(2-[2-(2-Amino-ethoxy)-ethoxy]-acetyl)-γE-CO-(CH2)18-CO2H)EAAEILAQV-NH2]",20.3 ± 2.9,> 1e+07
"I: Ac-GSPSIVTS[αMeL]DVPT[Aib][αMeL]LQKILEQERAEKARQQAKEAAEILAQV-NH2 / II: {C20 diacid}-PPPPPP[γGlu] (amide I:33-II:C) [SEQ ID NO: 15, Ac-GSPSIVTS αMeL DVPT Aib αMeL LQKILEQERAEKARQQAK(γE-PPPPPP-CO-(CH2)18-CO2H)EAAEILAQV-NH2]",11.3 ± 0.4,> 1e+07
[pGlu]GSPSGIVTS[αMeL]DVPT[Aib][αMeL]LQKILEQERAEKARQQAKEAAEILAQV-NH2 [SEQ ID NO: 23],28.9 ± 1.2,> 1e+07
"Ac-GSPSIVTS[αMeL]DVPT[Aib][αMeL]LQKILEQERAEKARQQAK([Gly-βAla-βAla-βAla-βAla-γGlu-C20 diacid])EAAEILAQV-NH2 [SEQ ID NO: 8, Ac-GSPSIVTS αMeL DVPT Aib αMeL LQKILEQERAEKARQQAK(G-(βA)4-γE-CO-(CH2)18-CO2H)EAAEILAQV-NH2]",11 ± 0.9,> 1e+07
"Ac-PPPIVTS[αMeL]D[dV]PT[Aib][αMeL]LQKLLEQERAEKARQQAK([γGlu-AEEA-εLys-C20 diacid])EAAEILAQV-NH2 [SEQ ID NO: 47, Ac-PPPIVTS αMeL D (D-Val) PT Aib αMeL LQKLLEQERAEKARQQAK(γE-(2-[2-(2-Amino-ethoxy)-ethoxy]-acetyl)-ϵK-CO-(CH2)18-CO2H)EAAEILAQV-NH2]",17.5 ± 2.2,2.3e+06
"[pGlu]GSPSGIVTS[αMeL]DVPT[Aib][αMeL]LQKILEQERAEKARQQAK([γGlu-AEEA-εLys-C18 diacid])EAAEILAQV-NH2 [SEQ ID NO: 24, Pyr-GSPSGIVTS αMeL DVPT Aib αMeL LQKILEQERAEKARQQAK(γE-(2-[2-(2-Amino-ethoxy)-ethoxy]-acetyl)-ϵK-CO-(CH2)16-CO2H)EAAEILAQV-NH2]",21.7 ± 3.6,> 1e+07

# Compounds with a lower EC50 (human CRHR2), results first:
EC50 (human CRHR2) [pM],EC50 (human CRHR1) [pM],Compound
4.4 ± 0.4,,"CC[C@H](C)[C@H](NC(C)=O)C(=O)N[C@H](C(=O)N[C@H](C(=O)N[C@@H](CO)C(=O)N[C@@](C)(CC(C)C)C(=O)N[C@@H](CC(=O)O)C(=O)N[C@@H](C(=O)N1CCC[C@H]1C(=O)N[C@H](C(=O)NCC(=O)N[C@@](C)(CC(C)C)C(=O)N[C@@H](CC(C)C)C(=O)N[C@@H](CCC(N)=O)C(=O)N[C@H](C(=O)N[C@@H](CCCCN)C(=O)N[C@@H](CC(C)C)C(=O)N[C@@H](CCC(=O)O)C(=O)N[C@@H](CCC(N)=O)C(=O)N[C@@H](CCC(=O)O)C(=O)N[C@@H](CCCNC(=N)N)C(=O)N[C@@H](C)C(=O)N[C@@H](CCC(=O)O)C(=O)N[C@@H](CCCCN)C(=O)N[C@@H](C)C(=O)N[C@@H](CCCNC(=N)N)C(=O)N[C@@H](CCC(N)=O)C(=O)N[C@@H](CCC(N)=O)C(=O)N[C@@H](C)C(=O)N[C@@H](CCCCNC(=O)CC[C@H](NC(=O)COCCOCCNC(=O)[C@@H](N)CCCCNC(=O)CCCCCCCCCCCCCCCCCCC(=O)O)C(=O)O)C(=O)N[C@@H](CCC(=O)O)C(=O)N[C@@H](CC(N)=O)C(=O)N[C@H](C(=O)N[C@@H](CCC(=O)O)C(=O)N[C@H](C(=O)N[C@@H](CC(C)C)C(=O)N[C@@H](C)C(=O)N[C@@H](CCC(N)=O)C(=O)N[C@H](C(N)=O)C(C)C)[C@@H](C)CC)[C@@H](C)O)[C@@H](C)CC)[C@@H](C)O)C(C)C)[C@@H](C)O)C(C)C [SEQ ID NO: 36, Ac-IVTS αMeL D (D-Val) PTG αMeL LQIKLEQERAEKARQQAK(γE-(2-[2-(2-Amino-ethoxy)-ethoxy]-acetyl)-ϵK-CO-(CH2)18-CO2H)ENTEILAQV-NH2] (Ac-IVTS[αMeL]D[dV]PTG[αMeL]LQIKLEQERAEKARQQAK([γGlu-AEEA-εLys-C20 diacid])ENTEILAQV-NH2)"
8.3 ± 0.5,> 1e+07,"Ac-GSPSIVTS[αMeL]DVPT[Aib][αMeL]LQKILEQERAEKARQQAK([γGlu-Pro-Pro-Pro-εLys-C20 diacid])EAAEILAQV-NH2 [SEQ ID NO: 14, Ac-GSPSIVTS αMeL DVPT Aib αMeL LQKILEQERAEKARQQAK(γE-PPP-EK-CO-(CH2)18-CO2H)EAAEILAQV-NH2]"
5.3 ± 0.9,,"CC[C@H](C)[C@H](NC(C)=O)C(=O)N[C@H](C(=O)N[C@H](C(=O)N[C@@H](CO)C(=O)N[C@@](C)(CC(C)C)C(=O)N[C@@H](CC(=O)O)C(=O)N[C@@H](C(=O)N1CCC[C@H]1C(=O)N[C@H](C(=O)NCC(=O)N[C@@](C)(CC(C)C)C(=O)N[C@@H](CC(C)C)C(=O)N[C@@H](CCC(N)=O)C(=O)N[C@H](C(=O)N[C@@H](CCCCN)C(=O)N[C@@H](CC(C)C)C(=O)N[C@@H](CCC(=O)O)C(=O)N[C@@H](CCC(N)=O)C(=O)N[C@@H](CCC(=O)O)C(=O)N[C@@H](CCCNC(=N)N)C(=O)N[C@@H](C)C(=O)N[C@@H](CCC(=O)O)C(=O)N[C@@H](CCCCN)C(=O)N[C@@H](C)C(=O)N[C@@H](CCCNC(=N)N)C(=O)N[C@@H](CCC(N)=O)C(=O)N[C@@H](CCC(N)=O)C(=O)N[C@@H](C)C(=O)N[C@@H](CCCCNC(=O)[C@@H](N)CCCCNC(=O)CC[C@H](NC(=O)COCCOCCNC(=O)CCCCCCCCCCCCCCCCCCC(=O)O)C(=O)O)C(=O)N[C@@H](CCC(=O)O)C(=O)N[C@@H](CC(N)=O)C(=O)N[C@H](C(=O)N[C@@H](CCC(=O)O)C(=O)N[C@H](C(=O)N[C@@H](CC(C)C)C(=O)N[C@@H](C)C(=O)N[C@@H](CCC(N)=O)C(=O)N[C@H](C(N)=O)C(C)C)[C@@H](C)CC)[C@@H](C)O)[C@@H](C)CC)[C@@H](C)O)C(C)C)[C@@H](C)O)C(C)C [SEQ ID NO: 35, Ac-IVTS αMeL D (D-Val) PTG αMeL LQIKLEQERAEKARQQAK(ϵK-γE-(2-[2-(2-Amino-ethoxy)-ethoxy]-acetyl)-CO-(CH2)18-CO2H)ENTEILAQV-NH2] (Ac-IVTS[αMeL]D[dV]PTG[αMeL]LQIKLEQERAEKARQQAK([εLys-γGlu-AEEA-C20 diacid])ENTEILAQV-NH2)"
6.6 ± 0.5,,{C20 diacid}-[Dap][AEEA][γGlu]GSPSIVTS[αMeL]DVPT[Aib][αMeL]LEKILEQERAEKARQQATEAAEILAQV-NH2 [SEQ ID NO: 52]

# From patent US20250163119A1, “COMPOUNDS FOR THE TREATMENT OF DIABETES OR OBESITY” (Eli Lilly and Company, priority 2023, published 2025)
